Laboratory results as given in PubChem BioAssay AID1963424 (Molecular Pharmacology Branch, DTP, NCI, 2024).

System: 327498-153-R-J2-PDC complex spheroid growth, % test/control
Experiment: Anticancer human tumor 327498-153-R-J2-PDC patient-derived uterine carcinosarcoma cell line growth inhibition [Asc]
Conditions: for IC50: curve of first compound; for viability, T/C: stronger effect = lower value
Procedure, shortened: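 Spheroid model: tumor line + HUVEC + hMSC. Single agents and combinations; top conc. at/near clinical Cmax (10 microM if undetermined), half-log dilutions. DMSO stocks at 800-fold test concentration.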

[1] = second compound 0.03 µM, first compound 0.00316 µM
[2] = second compound 0.03 µM, first compound 0.01 µM
[3] = second compound 0.03 µM, first compound 0.0316 µM
[4] = second compound 0.03 µM, first compound 0.1 µM
[5] = second compound 0.0949 µM, first compound 0.00316 µM
[6] = second compound 0.0949 µM, first compound 0.01 µM
[7] = second compound 0.0949 µM, first compound 0.0316 µM
[8] = second compound 0.0949 µM, first compound 0.1 µM
[9] = second compound 0.3 µM, first compound 0.00316 µM
[10] = second compound 0.3 µM, first compound 0.01 µM
[11] = second compound 0.3 µM, first compound 0.0316 µM
[12] = second compound 0.3 µM, first compound 0.1 µM
[13] = second compound 0.949 µM, first compound 0.00316 µM
[14] = second compound 0.949 µM, first compound 0.01 µM
[15] = second compound 0.949 µM, first compound 0.0316 µM
[16] = second compound 0.949 µM, first compound 0.1 µM
[17] = second compound 3 µM, first compound 0.00316 µM
[18] = second compound 3 µM, first compound 0.01 µM
[19] = second compound 3 µM, first compound 0.0316 µM
[20] = second compound 3 µM, first compound 0.1 µM
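Also: spheroids exposed to compound for 7 days after 3 days of growth.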
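For viability, T/C in this document: 100% = DMSO vehicle control wells.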

In the case of `COc1c(OCCCN2CCOCC2)ccc2c3n(c(=NC(=O)c4cnc(N)nc4)nc12)CCN3` + CCN1C(C(=O)NC23CCC(C(=O)O)(CC2)CC3)C(c2cccc(Cl)c2F)C2(C(=O)Nc3cc(Cl)ccc32)C12CCCCC2, the IC50 (second compound 0.03 µM) is reported as 81.8 nM, the IC50 (second compound 0.0949 µM) is reported as 33.5 nM and the IC50 (second compound 0.3 µM) is reported as < 3.16 nM. For the same compound, the IC50 (second compound 0.949 µM) was < 3.16 nM, the IC50 (second compound 3 µM) was < 3.16 nM and the viability, T/C [1] was 84.5%. For the same compound, the viability, T/C [2] was 90.5%, the viability, T/C [3] was 76.5% and the viability, T/C [4] was 41.8%. It also gave a viability, T/C (second compound 0.03 µM, first compound 0.316 µM) of 21.1%, a viability, T/C (second compound 0.03 µM, first compound 1 µM) of 5.21% and a viability, T/C [5] of 80.3%. For the same compound, the viability, T/C [6] was 73.3%, the viability, T/C [7] was 50.4% and the viability, T/C [8] was 25.6%. For the same compound, the viability, T/C (second compound 0.0949 µM, first compound 0.316 µM) was 12.3%, the viability, T/C (second compound 0.0949 µM, first compound 1 µM) was 2.62% and the viability, T/C [9] was 40.1%. The viability, T/C [10] was 33.8%, the viability, T/C [11] was 24.4% and the viability, T/C [12] was 10.8%. For the same compound, the viability, T/C (second compound 0.3 µM, first compound 0.316 µM) was 6.23%, the viability, T/C (second compound 0.3 µM, first compound 1 µM) was 0.74% and the viability, T/C [13] was 12.2%. For the same compound, the viability, T/C [14] was 9.4%, the viability, T/C [15] was 5.86% and the viability, T/C [16] was 2.63%. For the same compound, the viability, T/C (second compound 0.949 µM, first compound 0.316 µM) was 1.42%, the viability, T/C (second compound 0.949 µM, first compound 1 µM) was 0.49% and the viability, T/C [17] was 4.48%. It also gave a viability, T/C [18] of 3.3%, a viability, T/C [19] of 2.05% and a viability, T/C [20] of 1.31%. It also gave a viability, T/C (second compound 3 µM, first compound 0.316 µM) of 0.47% and a viability, T/C (second compound 3 µM, first compound 1 µM) of 0.37%.
In the case of `NC(=O)C(=Cn1cnc(-c2cc(C(F)(F)F)cc(C(F)(F)F)c2)n1)c1cncnc1` + CCN1C(C(=O)NC23CCC(C(=O)O)(CC2)CC3)C(c2cccc(Cl)c2F)C2(C(=O)Nc3cc(Cl)ccc32)C12CCCCC2, the IC50 (second compound 0.03 µM) is reported as 24.8 nM, the IC50 (second compound 0.0949 µM) is reported as 8.01 nM and the IC50 (second compound 0.3 µM) is reported as < 0.949 nM. The IC50 (second compound 0.949 µM) was < 0.949 nM, the IC50 (second compound 3 µM) was < 0.949 nM and the viability, T/C (second compound 0.03 µM, first compound 0.000949 µM) was 102%. It also gave a viability, T/C (second compound 0.03 µM, first compound 0.003 µM) of 83.2%, a viability, T/C (second compound 0.03 µM, first compound 0.00949 µM) of 75.5% and a viability, T/C (second compound 0.03 µM, first compound 0.03 µM) of 49.4%. The viability, T/C (second compound 0.03 µM, first compound 0.0949 µM) was 8.49%, the viability, T/C (second compound 0.03 µM, first compound 0.3 µM) was 1.47% and the viability, T/C (second compound 0.0949 µM, first compound 0.000949 µM) was 73.5%. The viability, T/C (second compound 0.0949 µM, first compound 0.003 µM) was 70.8%, the viability, T/C (second compound 0.0949 µM, first compound 0.00949 µM) was 45.9% and the viability, T/C (second compound 0.0949 µM, first compound 0.03 µM) was 16.1%. It also gave a viability, T/C (second compound 0.0949 µM, first compound 0.0949 µM) of 5.19%, a viability, T/C (second compound 0.0949 µM, first compound 0.3 µM) of 0.5% and a viability, T/C (second compound 0.3 µM, first compound 0.000949 µM) of 40.5%. It also gave a viability, T/C (second compound 0.3 µM, first compound 0.003 µM) of 33.2%, a viability, T/C (second compound 0.3 µM, first compound 0.00949 µM) of 22.8% and a viability, T/C (second compound 0.3 µM, first compound 0.03 µM) of 5.64%. It also gave a viability, T/C (second compound 0.3 µM, first compound 0.0949 µM) of 1.54%, a viability, T/C (second compound 0.3 µM, first compound 0.3 µM) of 0.36% and a viability, T/C (second compound 0.949 µM, first compound 0.000949 µM) of 9.07%. For the same compound, the viability, T/C (second compound 0.949 µM, first compound 0.003 µM) was 5.81%, the viability, T/C (second compound 0.949 µM, first compound 0.00949 µM) was 5.57% and the viability, T/C (second compound 0.949 µM, first compound 0.03 µM) was 1.96%. The viability, T/C (second compound 0.949 µM, first compound 0.0949 µM) was 0.72%, the viability, T/C (second compound 0.949 µM, first compound 0.3 µM) was 0.32% and the viability, T/C (second compound 3 µM, first compound 0.000949 µM) was 4.84%. The viability, T/C (second compound 3 µM, first compound 0.003 µM) was 2.37%, the viability, T/C (second compound 3 µM, first compound 0.00949 µM) was 1.32% and the viability, T/C (second compound 3 µM, first compound 0.03 µM) was 1%. For the same compound, the viability, T/C (second compound 3 µM, first compound 0.0949 µM) was 0.92% and the viability, T/C (second compound 3 µM, first compound 0.3 µM) was 0.41%.
For `NC1CCC(NC2CC2c2ccccc2)CC1` (stereo not given) + CCN1C(C(=O)NC23CCC(C(=O)O)(CC2)CC3)C(c2cccc(Cl)c2F)C2(C(=O)Nc3cc(Cl)ccc32)C12CCCCC2, the IC50 (second compound 0.03 µM) was > 100 nM, the IC50 (second compound 0.0949 µM) was > 100 nM and the IC50 (second compound 0.3 µM) was < 0.316 nM. For the same compound, the IC50 (second compound 0.949 µM) was < 0.316 nM, the IC50 (second compound 3 µM) was < 0.316 nM and the viability, T/C (second compound 0.03 µM, first compound 0.000316 µM) was 103%. It also gave a viability, T/C (second compound 0.03 µM, first compound 0.001 µM) of 94.5%, a viability, T/C [1] of 93.8% and a viability, T/C [2] of 92.4%. It also gave a viability, T/C [3] of 103%, a viability, T/C [4] of 97.3% and a viability, T/C (second compound 0.0949 µM, first compound 0.000316 µM) of 84.3%. For the same compound, the viability, T/C (second compound 0.0949 µM, first compound 0.001 µM) was 84.4%, the viability, T/C [5] was 83.4% and the viability, T/C [6] was 84.9%. For the same compound, the viability, T/C [7] was 83.9%, the viability, T/C [8] was 87.4% and the viability, T/C (second compound 0.3 µM, first compound 0.000316 µM) was 53%. For the same compound, the viability, T/C (second compound 0.3 µM, first compound 0.001 µM) was 47.9%, the viability, T/C [9] was 43.8% and the viability, T/C [10] was 39.1%. For the same compound, the viability, T/C [11] was 49.8%, the viability, T/C [12] was 43.6% and the viability, T/C (second compound 0.949 µM, first compound 0.000316 µM) was 10.8%. For the same compound, the viability, T/C (second compound 0.949 µM, first compound 0.001 µM) was 12.7%, the viability, T/C [13] was 15.8% and the viability, T/C [14] was 11.6%. It also gave a viability, T/C [15] of 14.7%, a viability, T/C [16] of 16.5% and a viability, T/C (second compound 3 µM, first compound 0.000316 µM) of 4.55%. The viability, T/C (second compound 3 µM, first compound 0.001 µM) was 5.4%, the viability, T/C [17] was 2.47% and the viability, T/C [18] was 7.42%. It also gave a viability, T/C [19] of 5.29% and a viability, T/C [20] of 4.14%.
